These results are taken from article PMC4557792 (ACS chemical biology, 2013).

Structures are written as SMILES.

The test system of one test is VMAT2-HEK cells. Kind of test: Fluorescence microscopy of FFN206 accumulation in VMAT2-HEK cells. It counts as cell-based, human.
Test [1] has as its target VMAT2 (Rattus norvegicus, UniProt Q01827). In kind it is cell-based. The following applies: for inhibitory effect on VMAT2 transport (FFN206 uptake) in screen: tested compound 10 µM, FFN206 1 µM, 30 min preincubation, 60 min uptake.
The subject of another test is VMAT. To be noted: cited from earlier work; for IC50: read-out: IC50, inhibiting [3H]DA uptake, rat brain vesicles.
Test [2] has as its system VMAT2. The following applies: endogenous substrate; cited from earlier work.

Chain of VMAT2 (Rattus norvegicus, UniProt Q01827) (Q01827 whole entry): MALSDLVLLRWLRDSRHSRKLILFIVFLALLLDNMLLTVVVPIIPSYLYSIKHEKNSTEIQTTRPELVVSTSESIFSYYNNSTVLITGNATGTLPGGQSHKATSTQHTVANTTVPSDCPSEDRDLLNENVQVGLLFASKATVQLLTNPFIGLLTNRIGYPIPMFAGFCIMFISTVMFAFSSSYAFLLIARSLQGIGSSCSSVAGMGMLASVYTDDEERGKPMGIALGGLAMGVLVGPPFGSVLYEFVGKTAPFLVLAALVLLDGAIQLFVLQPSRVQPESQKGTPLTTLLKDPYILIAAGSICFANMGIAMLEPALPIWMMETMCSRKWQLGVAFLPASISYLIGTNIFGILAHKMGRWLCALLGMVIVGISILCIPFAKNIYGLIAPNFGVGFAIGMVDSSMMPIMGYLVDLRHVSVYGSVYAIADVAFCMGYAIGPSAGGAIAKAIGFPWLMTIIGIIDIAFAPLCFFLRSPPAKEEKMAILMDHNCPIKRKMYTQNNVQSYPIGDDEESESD

`CCN(CC)CCCC(C)Nc1ccnc2cc(Cl)ccc12` (stereo not shown) [Chloroquine, chloroquine]: the “effect on punctate FFN206 fluorescence signal” value in the test on VMAT2-HEK cells (100 µM, within 3 minutes of treatment, cells pre-loaded with FFN206 5 µM) is “completely abolished”. On VMAT2 [1], the “inhibitory effect on VMAT2 transport (FFN206 uptake) in screen” value (“inhibitory effect on VMAT2 transport” below) was “reduces VMAT2-dependent uptake”.

`C[C@@H](N)Cc1ccccc1` [R(−)-amphetamine]: the concentration for half-maximal inhibition (IC50) (in general, the point on the concentration scale where inhibition reaches its midpoint) in the test on VMAT is 29 µM.

Consider `C[C@H](N)Cc1ccccc1` [S(+)-amphetamine], for which, in the test on VMAT, the concentration for half-maximal inhibition (IC50) was 3.27 µM.

Turning to `COc1cc2c(cc1OC)C1CC(=O)C(CC(C)C)CN1CC2` (stereo not shown) [TBZ, tetrabenazine], in the test on VMAT2-HEK cells (inhibitor 2 µM, 1 hr preincubation then coincubation, FFN206 5 µM, 2 hr), the “FFN206 uptake in VMAT2-HEK cells pre-treated with inhibitor” value is “Negligible uptake of FFN206”.

On to `c1ccc(CN2CCNCC2)cc1` [benzylpiperazine], for which the “activity in inhibiting vesicular uptake of [3H]DA by VMAT” value (from here on “activity in inhibiting vesicular uptake”) with VMAT was “inactive”. Also, on VMAT2 [1], the “inhibitory effect on VMAT2 transport” value is given as “no or weak inhibitory effects”.

On to `COC(=O)[C@H]1[C@@H](OC(=O)c2ccccc2)C[C@@H]2CC[C@H]1N2C` [cocaine], for which the “activity in inhibiting vesicular uptake” value in the test on VMAT was “inactive”. Besides, the “inhibition of FFN206 uptake (negative control)” value against VMAT2 [1] (96-well fluorometric assay, VMAT2-HEK cells) is listed as “no detectable inhibition”. Further, the “inhibitory effect on VMAT2 transport” value against VMAT2 [1] is listed as “no or weak inhibitory effects”.

Consider `CCN(CC)C(C)C(=O)c1ccccc1` (stereo not shown) [diethylpropion], for which, in the test with VMAT, the “activity in inhibiting vesicular uptake” value is “inactive”. For the same molecule, at VMAT2 [1], the “inhibitory effect on VMAT2 transport” value is reported as “no or weak inhibitory effects”.

For `NCCc1ccc(O)c(O)c1` [dopamine], in the test with VMAT2 [2], the concentration for half-maximal inhibition (IC50) was 0.92 ± 0.05 µM and the Km (commonly the concentration of substrate that gives half-maximal velocity) was 0.82 to 0.95 µM.

`CC(C)(N)Cc1ccccc1` [phentermine]: the “activity in inhibiting vesicular uptake” value in the test with VMAT is “inactive”. Besides, the “inhibitory effect on VMAT2 transport” value against VMAT2 [1] was “no or weak inhibitory effects”.
